Among the test systems are SNB-19 CNS; MDA-MB-231 breast; HOP-92 NSCLC; K-562 leukemia; RXF 393 renal; SW-620 colon; HCC-2998 colon; MDA-MB-435.
Holding throughout (experiment): NCI tumour cell line growth inhibition, 48 h

Each structure is given as a SMILES string.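 Grown in 96-well plates, cells were treated for 48 hours with each compound at five concentrations. Insufficient inhibition: endpoint recorded as highest concentration tested. Abbreviation: GI50, concentration required for 50% inhibition of growth. Definition used: TGI = concentration required for complete inhibition of growth.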

Take `Cn1cc(C2=C(c3cn(CCCN)c4ccccc34)C(=O)NC2=O)c2ccccc21`: the GI50 with SNB-19 CNS was 7.89 µM; with MDA-MB-231 breast it was 6.49 µM; in the test with HOP-92 NSCLC it was 8.26 µM; with K-562 leukemia, 4.29 µM; in the test on RXF 393 renal, 3.4 µM; in the test on SW-620 colon it was 4.38 µM. For the same compound, the GI50 in the test with HCC-2998 colon was 5.84 µM; with MDA-MB-435, 2.66 µM. Also, the TGI in the test on SNB-19 CNS came out at 24.9 µM; in the test on MDA-MB-231 breast, 16.7 µM; in the test with HOP-92 NSCLC it was 17.6 µM; with K-562 leukemia, 14.6 µM; with RXF 393 renal, 7.42 µM; in the test on SW-620 colon, 9.37 µM. Further, the TGI in the test on HCC-2998 colon was determined as 16.2 µM; in the test with MDA-MB-435 it was 6.62 µM.
As to `CCOc1ccc(C(C[N+](=O)[O-])Sc2ccccc2N)cc1` (configuration not stated), the GI50 was 9.22 µM with SNB-19 CNS; 2.43 µM with MDA-MB-231 breast; 16.5 µM with HOP-92 NSCLC; 2.97 µM in the test on K-562 leukemia; 2.1 µM with RXF 393 renal; 1.73 µM in the test with SW-620 colon. In addition, the GI50 with HCC-2998 colon was 1.77 µM; in the test on MDA-MB-435, 2.25 µM. The TGI in the test on SNB-19 CNS is 21.2 µM; in the test with MDA-MB-231 breast, 7.84 µM; in the test with HOP-92 NSCLC, 30.9 µM; with K-562 leukemia, 11.9 µM; in the test on RXF 393 renal, 4.6 µM; with SW-620 colon, 4.45 µM. Further, the results for the TGI in the test with HCC-2998 colon and with MDA-MB-435 were 3.25 µM and 6.95 µM, respectively.
Consider `CC(=O)Nc1ccc(S(=O)(=O)N=S(C)C)cc1`, for which the TGI in the test on SNB-19 CNS, in the test on MDA-MB-231 breast, in the test on HOP-92 NSCLC, in the test on K-562 leukemia, with RXF 393 renal and with SW-620 colon was greater than 100 µM throughout. For the same compound, the TGI with HCC-2998 colon and in the test on MDA-MB-435 was greater than 100 µM throughout.
Take `[N-]=[N+]=NCCCn1c2c(c3ccc([N+](=O)[O-])cc3c1=O)C(=O)c1cc(-c3ccccc3)ccc1-2`: the GI50 in the test on SNB-19 CNS, in the test on MDA-MB-231 breast, in the test with HOP-92 NSCLC, with RXF 393 renal, in the test on SW-620 colon and in the test on HCC-2998 colon was greater than 100 µM each time. Further, the GI50 in the test with MDA-MB-435 is greater than 100 µM. The TGI in the test on SNB-19 CNS, in the test with MDA-MB-231 breast, in the test on HOP-92 NSCLC, in the test with K-562 leukemia, in the test on RXF 393 renal and in the test on SW-620 colon was greater than 100 µM throughout. Moreover, the TGI with HCC-2998 colon and in the test with MDA-MB-435 was greater than 100 µM in each case.
Regarding `CCN1C(=O)N(CC)C2C1NN=c1s/c(=C3\C(=O)N(C4CCCC4)c4ccccc43)c(=O)n12` (configuration not stated), the GI50 with SNB-19 CNS was 3.47 µM; with MDA-MB-231 breast, 2.2 µM; in the test with HOP-92 NSCLC, 1.21 µM; in the test on K-562 leukemia it was 0.37 µM; with RXF 393 renal it was 0.603 µM; in the test on SW-620 colon, 0.551 µM. Moreover, the GI50 in the test on HCC-2998 colon was 1.65 µM; in the test on MDA-MB-435 it was 0.242 µM. Moreover, the TGI was 40.5 µM in the test on SNB-19 CNS; 20.6 µM in the test on MDA-MB-231 breast; 6.4 µM with HOP-92 NSCLC; greater than 100 µM with K-562 leukemia; 3.2 µM in the test with RXF 393 renal; greater than 100 µM in the test on SW-620 colon. In addition, the TGI was 5.19 µM in the test with HCC-2998 colon and 0.661 µM in the test with MDA-MB-435.
Consider `C=C1C(=O)O[C@H]2[C@H]1CC/C(COC(=O)/C=C\C(=O)NCc1ccc(Cn3c(=O)sn(CCI)c3=O)cc1)=C\CC[C@@]1(C)O[C@@H]21`, for which the GI50 was 11.4 µM in the test on SNB-19 CNS; 2.52 µM in the test on MDA-MB-231 breast; 2.05 µM in the test on HOP-92 NSCLC; 2.45 µM with K-562 leukemia; 1.81 µM with RXF 393 renal; 1.92 µM in the test with SW-620 colon. In addition, the GI50 in the test with HCC-2998 colon is 13.9 µM; with MDA-MB-435 it was 3.04 µM. Also, the TGI was 24.7 µM in the test on SNB-19 CNS; 6.68 µM in the test with MDA-MB-231 breast; 4.6 µM in the test on HOP-92 NSCLC; greater than 100 µM in the test on K-562 leukemia; 3.69 µM in the test on RXF 393 renal; 3.75 µM with SW-620 colon. Further, the TGI worked out at 27.8 µM with HCC-2998 colon and 8.68 µM with MDA-MB-435.
`CCCCCCCCCCNCCSS(=O)(=O)O`: the GI50 with SNB-19 CNS was 1.72 µM; with MDA-MB-231 breast, 1.77 µM; in the test on HOP-92 NSCLC, 8.84 µM; with K-562 leukemia, 2.61 µM; in the test on RXF 393 renal it was 2.21 µM; with SW-620 colon, 1.95 µM. The GI50 with HCC-2998 colon was 1.73 µM; in the test with MDA-MB-435 it was 1.14 µM. Further, the TGI in the test with SNB-19 CNS came out at 3.24 µM; in the test with MDA-MB-231 breast it was 3.69 µM; in the test with HOP-92 NSCLC, 25.7 µM; in the test with K-562 leukemia, 7.28 µM; in the test on RXF 393 renal it was 3.91 µM; in the test with SW-620 colon it was 4.32 µM. For the same compound, the results for the TGI in the test with HCC-2998 colon and in the test on MDA-MB-435 were 3.19 µM and 2.91 µM, respectively.
On to `CNC(=O)c1c(F)cccc1Nc1nc(Nc2cc3c(cc2OC)CCN3C(=O)CN(C)C)nc2[nH]ccc12`, for which the GI50 was 7.04 µM with SNB-19 CNS; 1.9 µM in the test on MDA-MB-231 breast; 0.0309 µM in the test on HOP-92 NSCLC; 2.58 µM in the test with K-562 leukemia; 1.8 µM in the test with RXF 393 renal; 1.14 µM in the test on SW-620 colon. Besides, the GI50 with HCC-2998 colon was 4.42 µM; with MDA-MB-435, 1.4 µM. The TGI in the test with SNB-19 CNS was greater than 62.8 µM; in the test on MDA-MB-231 breast it was 4.15 µM; in the test on HOP-92 NSCLC, 1.6 µM; in the test with K-562 leukemia it was 6.41 µM; in the test on RXF 393 renal, 3.6 µM; with SW-620 colon it was 3.42 µM. The TGI with HCC-2998 colon stood at 9.2 µM; in the test on MDA-MB-435 it was 3.51 µM.
As for `Clc1cccc(CNc2c3ccccc3nc3ccccc23)c1`, the GI50 with SNB-19 CNS was 2.89 µM; in the test on MDA-MB-231 breast, 1.91 µM; with HOP-92 NSCLC, 1.12 µM; in the test on K-562 leukemia, 2.39 µM; in the test with RXF 393 renal, 1.35 µM; in the test on SW-620 colon it was 1.47 µM. Also, the GI50 was 1.65 µM in the test on HCC-2998 colon and 1.67 µM with MDA-MB-435. The TGI in the test on SNB-19 CNS came out at 12.4 µM; in the test with MDA-MB-231 breast, 4.75 µM; with HOP-92 NSCLC, 3.82 µM; with K-562 leukemia it was 11.2 µM; in the test on RXF 393 renal it was 2.85 µM; in the test with SW-620 colon, 3.91 µM. Besides, the TGI in the test with HCC-2998 colon turned out to be 3.19 µM; in the test with MDA-MB-435 it was 3.13 µM.
For the compound `COc1ccc2c(O)c(/C=C3\N=Nc4ncccc43)oc2c1C[C@@H]1CCNC[C@H]1F`, the GI50 is 0.541 µM in the test with SNB-19 CNS; 0.728 µM in the test with MDA-MB-231 breast; 4.7 µM in the test with HOP-92 NSCLC; 0.442 µM in the test on K-562 leukemia; 0.253 µM with RXF 393 renal; 0.34 µM in the test on SW-620 colon. Moreover, the GI50 in the test on HCC-2998 colon is 1.67 µM; in the test with MDA-MB-435, 1.21 µM. Besides, the TGI came out at 7.59 µM with SNB-19 CNS; 2.77 µM in the test on MDA-MB-231 breast; 9.21 µM in the test on HOP-92 NSCLC; 1.79 µM in the test on K-562 leukemia; 0.984 µM with RXF 393 renal; 1.12 µM with SW-620 colon. The TGI in the test with HCC-2998 colon was determined as 4.09 µM; in the test on MDA-MB-435 it was 2.79 µM.
For the compound `CC1=C(C(=O)Nc2ccc(F)c(Cl)c2)C(c2cccc(Oc3ccccc3)c2)NC(=S)N1` (configuration not stated), the GI50 in the test with SNB-19 CNS is 32.2 µM; in the test on MDA-MB-231 breast, 10.7 µM; in the test on HOP-92 NSCLC it was 21 µM; with K-562 leukemia, 10.7 µM; with RXF 393 renal, 6.79 µM; in the test with SW-620 colon, 16.2 µM. The figures for the GI50 in the test with HCC-2998 colon and in the test on MDA-MB-435 were 23.8 µM and 11.9 µM, respectively. For the same compound, the TGI was greater than 50 µM with SNB-19 CNS; 22.9 µM with MDA-MB-231 breast; greater than 50 µM in the test on HOP-92 NSCLC; 31.6 µM with K-562 leukemia; 15.6 µM with RXF 393 renal; 44.2 µM in the test with SW-620 colon. Further, the TGI was greater than 50 µM with HCC-2998 colon and 33.8 µM in the test on MDA-MB-435.
With `Oc1ccc2ccccc2c1C=NCc1c(O)ccc2ccccc12`, the TGI is greater than 100 µM in the test on SNB-19 CNS; greater than 100 µM with MDA-MB-231 breast; greater than 100 µM in the test on HOP-92 NSCLC; greater than 100 µM in the test with K-562 leukemia; 9.34 µM with RXF 393 renal; greater than 100 µM in the test on SW-620 colon. The TGI in the test with HCC-2998 colon and in the test on MDA-MB-435 was greater than 100 µM in each case.
Consider `COc1ccc(C2C(C#N)=C(N)Oc3c2sc2c(Br)cccc32)cc1` (configuration not stated), for which the GI50 in the test on SNB-19 CNS was 4.04 µM; with MDA-MB-231 breast it was 2.78 µM; in the test on HOP-92 NSCLC, 8.88 µM; with K-562 leukemia, 0.404 µM; in the test on RXF 393 renal, 1.94 µM; in the test with SW-620 colon, 1.87 µM. In addition, the values for the GI50 in the test with HCC-2998 colon and with MDA-MB-435 were 1.64 µM and 0.373 µM, respectively. Besides, the TGI with SNB-19 CNS was found to be 21.6 µM; in the test with MDA-MB-231 breast, 12.7 µM; in the test on HOP-92 NSCLC, 26.4 µM; in the test with K-562 leukemia it was 5.79 µM; with RXF 393 renal, 5.96 µM; in the test with SW-620 colon it was 86.6 µM. The TGI with HCC-2998 colon is 6.25 µM; in the test on MDA-MB-435 it was 2.54 µM.
For the compound `CCC(C)C1=C(O)[N+]2([O-])Oc3ccc(C4=C(O)C(=O)C(c5ccc(O)cc5)=C(O)C4=O)cc3OC2(C(C)CC)C(=O)N1O` (configuration not stated), the GI50 with SNB-19 CNS is 4.95 µM; in the test on MDA-MB-231 breast it was 15.5 µM; in the test on HOP-92 NSCLC, 9.29 µM; in the test with K-562 leukemia, 8.03 µM; in the test on RXF 393 renal, 8.49 µM; in the test with SW-620 colon, 25.4 µM. The GI50 is 6.78 µM in the test on HCC-2998 colon and 9.77 µM in the test with MDA-MB-435. The TGI is 83.6 µM with SNB-19 CNS; 63.8 µM in the test with MDA-MB-231 breast; greater than 100 µM in the test with HOP-92 NSCLC; greater than 100 µM in the test on K-562 leukemia; greater than 100 µM with RXF 393 renal; greater than 100 µM in the test on SW-620 colon. Further, the figures for the TGI with HCC-2998 colon and in the test on MDA-MB-435 were 57.2 µM and 90.6 µM, respectively.
